This note sets out measurements from US11357817B2, “Immunoproteasome inhibitor” (The Regents of the University of California, priority 2017, dated 2022).

Molecules are shown by their SMILES. A value given as a limit tells only on which side of the number the result lay.

In one test the test system is HepG2 cells. Briefly: HepG2 cytotoxicity assay. The class given is cell-based. Conditions: Homo sapiens. The procedure: The liver-stage and HepG2 toxicity assays were performed as previously reported (35). Briefly, HepG2-A16-CD81EGFP, human hepatocarcinoma HepG2 cells stably transformed to express the tetraspanin CD81 receptor (36, 37) and thus susceptible to P. berghei infection, were cultured at 37° C. in 5% CO2 in DMEM (Life Technologies, Calif.) supplemented with 10% FBS, 0.29 mg/ml glutamine, 100 unit penicillin and 100 μg/ml streptomycin. For both the P. berghei-luciferase and HepG2 cytotoxicity assays, 3×10^3 of the HepG2-A16-CD81EGFP cells in 5 μl of assay medium (DMEM without Phenol Red (Life Technologies, Calif.), 5% FBS, and 5× Pen Strep Glutamine (Life Technologies, Calif.)) at concentration 6×10^5 cells/ml were seeded in 1536-well plates (Greiner BioOne white solid bottom custom GNF mold) 20-26 hours prior to the actual infection. 18 hours prior to infection, 50 nl of compound in DMSO (0.5% final DMSO concentration per well) were transferred with Acoustic Transfer System (ATS) (Biosero) into the assay plates. Atovaquone (12-point serial dilution starting at 10 μM) and Puromycin (12-point serial dilution starting at 10 μM) were used as positive controls for Pb. liver stage assay and HepG2 cytotoxicity respectively. 0.5% DMSO was used as negative control for the both assays.
An. stephensi mosquitoes, infected with P. berghei-luciferase, were provided by the New York University Insectary. P. berghei-luciferase sporozoites were freshly dissected from the infected A. stephensi mosquito salivary glands, filtered twice through a 20 μm nylon net filter using Steriflip Vacuum-Driven Filtration System (Millipore), counted in a hemocytometer, and then adjusted to final concentration 200 sporozoites per μl in the assay media. […] The HepG2-A16-CD81EGFP cell designated for toxicity studies were left uninfected, with 5 ul of additional assay media added to each well to maintain equal concentrations of compounds with P. berghei-luciferase infected plates. After incubation at 37° C. for 48 hours the exoerythrocytic growth and HepG2-A16-CD81EGFP cell viability were quantified by a bioluminescence measurement.
The HepG2 cytotoxicity was assessed by removing the media through an inverted spin of the plates at 150 g for 30 s and addition of 2 μL of CellTiterGlo reagent (Promega diluted 1:2 with deionized water) per well using the MicroFlo liquid handler (BioTek). Immediately after addition of the luminescence reagent, the plates were vortexed for 10 s and read with an EnVision Multilabel reader (PerkinElmer). IC50 values were obtained as above.

Another test deals with P. falciparum Dd2. In words: P. falciparum Dd2 asexual blood stage SYBR Green I compound sensitivity assay. Type of test: cell-based, Plasmodium falciparum. Conditions: for Selectivity Index: P. falciparum activity versus HepG2 activity; for IC50: asexual blood stage, 72 hour SYBR green assay. The procedure: P. falciparum Dd2 strain parasites were cultured under standard conditions (31), using RPMI media supplemented with 0.05 mg/ml gentamycin, 0.014 mg/mL hypoxanthine (prepared fresh), 38.4 mM HEPES, 0.2% Sodium Bicarbonate, 3.4 mM Sodium Hydroxide, 0.05% O+ Human Serum (Denatured at […] for 40 min and From Interstate Blood Bank, Memphis, Tenn.) and 0.0025% Albumax). Human O+ whole blood was obtained from TSRI blood bank (La Jolla, Calif.). Leukocyte-free erythrocytes are stored at 50% hematocrit in RPMI-1640 screening media (as above, but without O+ human serum and with 2× albumax concentration) at 4° C. for one to three weeks before experimental use. Cultures were monitored every one to two days via Giemsa-stained thin smears.
Compound susceptibility was measured using the malaria SYBR Green I-based fluorescence assay (32). Asynchronous P. falciparum parasites (Dd2 strain) were cultured in standard conditions before being plated for the assays. Each compound was tested over 72 hours in technical duplicates on a twelve-point concentration curve prepared by three-fold dilution from 6.7 μM to 0.11 nM. At least three independent experiments were carried out for IC50 determination. Artemisinin and chloroquine were used as controls. IC50 values were obtained using normalized fluorescence intensity from SYBR green I and analyzed via non-linear variable slope four-parameter regression curve-fitting model in Prism 6 (GraphPad Software Inc).

[1] abbreviates: Plasmodium falciparum, DD2, 72 h.

For `CCCCCC(=O)NC(Cc1ccc(N)cc1)C(=O)N[C@@H](Cc1ccc(N)cc1)C(=O)N[C@@H](CC(C)C)C(=O)[C@@]1(C)CO1` (stereo in doubt) [Analog 12, N—((R)-3-(4-aminophenyl)-1-(((S)-3-(4-aminophenyl)-1-(((S)-4-methyl-1-((R)-2-methyloxiran-2-yl)-1-oxopentan-2-yl)amino)-1-oxopropan-2-yl)amino)-1-oxopropan-2-yl)hexanamide], the half-maximal inhibitory concentration (IC50) was 0.91 ± 0.25 nM in the test on HepG2 cells and 59.6 ± 15.4 nM in the test on P. falciparum Dd2 (setting [1]). Also, in the test on P. falciparum Dd2, the “Selectivity Index” value is given as 0.02.

Consider `CCCCCC(=O)NC(Cc1ccc(N)cc1)C(=O)N[C@@H](Cc1ccc(N)cc1)C(=O)N[C@@H](Cc1ccccc1)C(=O)[C@@]1(C)CO1` (stereo in doubt) [Analog 13, N—((R)-3-(4-aminophenyl)-1-(((S)-3-(4-aminophenyl)-1-(((S)-1-((R)-2-methyloxiran-2-yl)-1-oxo-3-phenylpropan-2-yl)amino)-1-oxopropan-2-yl)amino)-1-oxopropan-2-yl)hexanamide], for which the IC50 turned out to be 952 ± 275 nM with HepG2 cells and 68.2 ± 15.4 nM with P. falciparum Dd2 (setting [1]). In addition, the “Selectivity Index” value in the test on P. falciparum Dd2 stood at 13.96.

Regarding `CCCCCC(=O)NC(Cc1ccc(NC(=O)OC(C)(C)C)cc1)C(=O)N[C@@H](Cc1ccc(NC(=O)OC(C)(C)C)cc1)C(=O)N[C@@H](CC(C)C)C(=O)[C@@]1(C)CO1` (stereo in doubt) [Analog 14, tert-butyl (4-((R)-3-(((S)-3-(4-((tert-butoxycarbonyl)amino)phenyl)-1-(((S)-4-methyl-1-((R)-2-methyloxiran-2-yl)-1-oxopentan-2-yl)amino)-1-oxopropan-2-yl)amino)-2-hexanamido-3-oxopropyl)phenyl)carbamate], the IC50 was 118 ± 21.7 nM in the test with HepG2 cells and 13.5 ± 4.69 nM in the test on P. falciparum Dd2 (setting [1]). The “Selectivity Index” value in the test with P. falciparum Dd2 is 8.74.

Regarding `CCCCCC(=O)NC(Cc1ccc(NC(=O)OC(C)(C)C)cc1)C(=O)N[C@@H](Cc1ccc(NC(=O)OC(C)(C)C)cc1)C(=O)N[C@@H](Cc1ccccc1)C(=O)[C@@]1(C)CO1` (stereo in doubt) [Analog 15, tert-butyl (4-((R)-3-(((S)-3-(4-((tert-butoxycarbonyl)amino)phenyl)-1-(((S)-1-((R)-2-methyloxiran-2-yl)-1-oxo-3-phenylpropan-2-yl)amino)-1-oxopropan-2-yl)amino)-2-hexanamido-3-oxopropyl)phenyl)carbamate], the IC50 in the test on HepG2 cells turned out to be 45.7 ± 15.7 nM; in the test on P. falciparum Dd2 (setting [1]), 12.2 ± 3.83 nM. In the test with P. falciparum Dd2, the “Selectivity Index” value is given as 3.75.

For the compound `CCCCCC(=O)N[C@@H](Cc1ccccc1)C(=O)N[C@@H](CCCC)C(=O)N[C@@H](CC(C)C)C(=O)[C@@]1(C)CO1` [Analog 2, (S)-2-((S)-2-hexanamido-3-phenylpropanamido)-N—((S)-4-methyl-1-((R)-2-methyloxiran-2-yl)-1-oxopentan-2-yl)hexanamide], the results for the IC50 with HepG2 cells and in the test with P. falciparum Dd2 (setting [1]) were 22.7 ± 8.42 nM and 4.04 ± 0.759 nM, respectively. Besides, the “Selectivity Index” value in the test with P. falciparum Dd2 came out at 5.62.

Regarding `CCCCCC(=O)N[C@@H](Cc1ccncc1)C(=O)N[C@@H](CCCC)C(=O)N[C@@H](CC(C)C)C(=O)[C@@]1(C)CO1` [Analog 3, (S)-2-((S)-2-hexanamido-3-(pyridin-4-yl)propanamido)-N—((S)-4-methyl-1-((R)-2-methyloxiran-2-yl)-1-oxopentan-2-yl)hexanamide], the values for the IC50 in the test on HepG2 cells and in the test on P. falciparum Dd2 (listed as 3) were below 0.283 nM and 3.28 ± 0.674 nM, respectively. In addition, in the test on P. falciparum Dd2 (listed as 3), the “Selectivity Index” value is 0.09.

For the compound `CCCCCC(=O)N[C@@H](Cc1ccc(N)cc1)C(=O)N[C@@H](CCCC)C(=O)N[C@@H](CC(C)C)C(=O)[C@@]1(C)CO1` [Analog 4, (S)-2-((S)-3-(4-aminophenyl)-2-hexanamidopropanamido)-N—((S)-4-methyl-1-((R)-2-methyloxiran-2-yl)-1-oxopentan-2-yl)hexanamide], the IC50 amounted to 6.32 ± 4.99 nM with HepG2 cells and 5.99 ± 1.08 nM in the test on P. falciparum Dd2 (setting [1]). The “Selectivity Index” value in the test on P. falciparum Dd2 was 1.06.

Regarding `CCCCCC(=O)N[C@@H](Cc1ccc(NC(=O)OC(C)(C)C)cc1)C(=O)N[C@@H](CCCC)C(=O)N[C@@H](CC(C)C)C(=O)[C@@]1(C)CO1` [Analog 5, tert-butyl (4-((S)-2-hexanamido-3-(((S)-1-(((S)-4-methyl-1-((R)-2-methyloxiran-2-yl)-1-oxopentan-2-yl)amino)-1-oxohexan-2-yl)amino)-3-oxopropyl)phenyl)carbamate], the IC50 worked out at 80.2 ± 26.5 nM in the test on HepG2 cells and 5.55 ± 0.23 nM with P. falciparum Dd2 (setting [1]). Also, in the test with P. falciparum Dd2, the “Selectivity Index” value came out at 14.45.

Regarding `CCCCCC(=O)N[C@@H](Cc1c[nH]c2ccccc12)C(=O)N[C@@H](CCCC)C(=O)N[C@@H](CC(C)C)C(=O)[C@@]1(C)CO1` [Analog 6, (S)-2-((S)-2-hexanamido-3-(1H-indol-3-yl)propanamido)-N—((S)-4-methyl-1-((R)-2-methyloxiran-2-yl)-1-oxopentan-2-yl)hexanamide], the IC50 is 3.27 ± 1.29 nM in the test with HepG2 cells and 3.11 ± 0.026 nM in the test with P. falciparum Dd2 (setting [1]). Further, in the test on P. falciparum Dd2, the “Selectivity Index” value is reported as 1.05.

As to `CCCCCC(=O)N[C@@H](Cc1ccccc1)C(=O)N[C@@H](CCCC)C(=O)N[C@@H](Cc1ccccc1)C(=O)[C@@]1(C)CO1` [Analog 7, (S)-2-((S)-2-hexanamido-3-phenylpropanamido)-N—((S)-1-((R)-2-methyloxiran-2-yl)-1-oxo-3-phenylpropan-2-yl)hexanamide], the values for the IC50 with HepG2 cells and in the test with P. falciparum Dd2 (setting [1]) were 30.8 ± 13.7 nM and 6.7 ± 0.451 nM, respectively. For the same compound, the “Selectivity Index” value in the test on P. falciparum Dd2 is on record as 4.60.

Take `CCCCCC(=O)N[C@@H](Cc1ccncc1)C(=O)N[C@@H](CCCC)C(=O)N[C@@H](Cc1ccccc1)C(=O)[C@@]1(C)CO1` [Analog 8, (S)-2-((S)-2-hexanamido-3-(pyridin-4-yl)propanamido)-N—((S)-1-((R)-2-methyloxiran-2-yl)-1-oxo-3-phenylpropan-2-yl)hexanamide]: the values for the IC50 in the test on HepG2 cells and with P. falciparum Dd2 (setting [1]) were below 0.283 nM and 3.87 ± 1.37 nM, respectively. Also, the “Selectivity Index” value in the test on P. falciparum Dd2 came to 0.07.

On to `CCCCCC(=O)N[C@@H](Cc1ccc(N)cc1)C(=O)N[C@@H](CCCC)C(=O)N[C@@H](Cc1ccccc1)C(=O)[C@@]1(C)CO1` [Analog 9, (S)-2-((S)-3-(4-aminophenyl)-2-hexanamidopropanamido)-N—((S)-1-((R)-2-methyloxiran-2-yl)-1-oxo-3-phenylpropan-2-yl)hexanamide], for which the results for the IC50 in the test with HepG2 cells and with P. falciparum Dd2 (setting [1]) were 3410 ± 2310 nM and 81.8 ± 14 nM, respectively. The “Selectivity Index” value with P. falciparum Dd2 amounted to 41.69.

Take `CCCCCC(=O)N[C@@H](Cc1ccc(NC(=O)OC(C)(C)C)cc1)C(=O)N[C@@H](CCCC)C(=O)N[C@@H](Cc1ccccc1)C(=O)[C@@]1(C)CO1` [Analog 10, tert-butyl (4-((S)-2-hexanamido-3-(((S)-1-(((S)-1-((R)-2-methyloxiran-2-yl)-1-oxo-3-phenylpropan-2-yl)amino)-1-oxohexan-2-yl)amino)-3-oxopropyl)phenyl)carbamate]: the results for the IC50 in the test on HepG2 cells and with P. falciparum Dd2 (setting [1]) were 478 ± 126 nM and 5.45 ± 2.49 nM, respectively. The “Selectivity Index” value in the test on P. falciparum Dd2 stood at 87.71.

Turning to `CCCCCC(=O)N[C@@H](Cc1c[nH]c2ccccc12)C(=O)N[C@@H](CCCC)C(=O)N[C@@H](Cc1ccccc1)C(=O)[C@@]1(C)CO1` [Analog 11, (S)-2-((S)-2-hexanamido-3-(1H-indol-3-yl)propanamido)-N—((S)-1-((R)-2-methyloxiran-2-yl)-1-oxo-3-phenylpropan-2-yl)hexanamide], the figures for the IC50 in the test on HepG2 cells and in the test with P. falciparum Dd2 (setting [1]) were 6.41 ± 2.26 nM and 9.77 ± 1.31 nM, respectively. In addition, the “Selectivity Index” value in the test on P. falciparum Dd2 is given as 0.66.

For `CCCCCC(=O)N[C@@H](Cc1ccncc1)C(=O)N[C@@H](CCCC)C(=O)N[C@@H](CC(C)C)C(=O)[C@@]1(C)CO1` [Analog 20], in the test on P. falciparum Dd2 (listed as 20), the “Selectivity Index” value turned out to be 0.01 and inhibition was half-maximal at 21.8 ± 3.67 nM (IC50).

The term IC50 denotes the concentration that gives 50% inhibition. A lower IC50 goes with greater potency.
